Laboratory results as given in patent US20060069132A1, “Azolecarboxamide herbicides” (priority 2004, published 2006).

Columns and labels:
giant foxtail [1] = assay: Test B pre-/postemergence herbicide test; assay type: in vivo, Setaria faberi; details: for Foxtail, Giant plant response rating: postemergence, visual rating, scale 0 (no effect) to 100 (complete control)
How it was run: (§1)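 Evaluation is visual, comparing treated with control plants on a scale where 0 means no effect and 100 means full control. Treatments were preemergence, or postemergence on seedlings 2–18 cm tall, and held 13–15 days in the greenhouse.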

Surinam grass = assay: Test B pre-/postemergence herbicide test; assay type: in vivo, Urochloa decumbens; details: for Surinam Grass plant response rating: postemergence, visual rating, scale 0 (no effect) to 100 (complete control)
How it was run: as §1

rice [2] = assay: Test B flooded paddy test; assay type: in vivo, Oryza sativa; details: 1000 g ai/ha, visual rating, scale 0 to 100 (0 no effect, 100 complete control), 13 to 15 days
How it was run: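 Each value is a visual 0–100 response rating taken against controls 13 to 15 days after treatment in the greenhouse. Plants received formulated chemical postemergence at the 1- to 4-leaf stage or, in flooded paddy, at the 2-leaf stage.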

barnyardgrass [3] = assay: Test B flooded paddy test; assay type: in vivo, Echinochloa crus-galli; details: 1000 g ai/ha, visual rating, scale 0 to 100 (0 no effect, 100 complete control), 13 to 15 days
How it was run: (§2)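 Visual control ratings, 0–100 versus untreated controls, taken after 13 to 15 days in the greenhouse. Blackgrass received a postemergence spray at the 1- to 4-leaf stage (2–18 cm); ducksalad, umbrella sedge and barnyardgrass were flooded-paddy treated at 2 leaves.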

velvetleaf [4] = assay: Test A pre-/postemergence herbicide test; assay type: in vivo, Abutilon theophrasti
How it was run: (§3)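 Plants are held in greenhouse about ten days after treatment, then compared with untreated controls and scored 0 (no effect) to 100 (complete control). Preemergence dosing is a directed soil spray on sown sandy loam; postemergence dosing is spray to runoff at 2–10 cm height.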

redroot pigweed = assay: Test A pre-/postemergence herbicide test; assay type: in vivo, Amaranthus retroflexus
How it was run: as §3

barnyardgrass [5] = assay: Test B pre-/postemergence herbicide test; assay type: in vivo, Echinochloa crus-galli; details: for Barnyardgrass plant response rating: postemergence, visual rating, scale 0 (no effect) to 100 (complete control)
How it was run: (§4)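 Response was scored visually 13 to 15 days after treatment against untreated greenhouse controls, 0 meaning no effect and 100 complete control. Formulations (solvent mixture plus surfactant) went onto soil after planting, onto foliage of 1- to 4-leaf plants, and onto 2-leaf plants in a flooded paddy set including rice and barnyardgrass.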

wild oat = assay: Test B postemergence herbicide test; assay type: in vivo, Avena fatua; details: postemergence, visual rating, scale 0 (no effect) to 100 (complete control)
How it was run: (§5)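 Formulated test chemicals went onto postemergence plants measuring 2 to 18 cm, at one to four leaves. For the paddy assay, species had reached two leaves. Scoring took place 13–15 days later by eye, relative to untreated plants, using 0 for no effect up to 100 for full control.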

blackgrass = assay: Test B postemergence herbicide test; assay type: in vivo, Alopecurus myosuroides; details: postemergence, visual rating, scale 0 (no effect) to 100 (complete control)
How it was run: as §2

pigweed = assay: Test B pre-/postemergence herbicide test; assay type: in vivo, Amaranthus retroflexus; details: for Pigweed plant response rating: postemergence, visual rating, scale 0 (no effect) to 100 (complete control)
How it was run: as §1

large crabgrass [6] = assay: Test B pre-/postemergence herbicide test; assay type: in vivo, Digitaria sanguinalis; details: for Crabgrass, Large plant response rating: postemergence, visual rating, scale 0 (no effect) to 100 (complete control)
How it was run: as §1

[7] = tested on: small flower umbrella sedge; assay: Test B flooded paddy test; assay type: in vivo, Cyperus difformis; details: 1000 g ai/ha, visual rating, scale 0 to 100 (0 no effect, 100 complete control), 13 to 15 days
How it was run: as §2

barnyardgrass [8] = assay: Test A pre-/postemergence herbicide test; assay type: in vivo, Echinochloa crus-galli
How it was run: as §3

ducksalad = assay: Test B flooded paddy test; assay type: in vivo, Heteranthera limosa; details: 1000 g ai/ha, visual rating, scale 0 to 100 (0 no effect, 100 complete control), 13 to 15 days
How it was run: as §2

morningglory [9] = assay: Test B pre-/postemergence herbicide test; assay type: in vivo, Ipomoea coccinea; details: for Morningglory plant response rating: postemergence, visual rating, scale 0 (no effect) to 100 (complete control)
How it was run: as §4

lambsquarters = assay: Test B pre-/postemergence herbicide test; assay type: in vivo, Chenopodium album; details: for Lambsquarters plant response rating: postemergence, visual rating, scale 0 (no effect) to 100 (complete control)
How it was run: as §1

cocklebur = assay: Test B pre-/postemergence herbicide test; assay type: in vivo, Xanthium strumarium; details: for Cocklebur plant response rating: postemergence, visual rating, scale 0 (no effect) to 100 (complete control)
How it was run: as §4

rice [10] = assay: Test B pre-/postemergence herbicide test; assay type: in vivo, Oryza sativa; details: preemergence
How it was run: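 Plants compared with untreated controls 13–15 days post-treatment and given a visual 0–100 injury score. Applications: preemergence to seeds; postemergence at 1- to 4-leaf (2–18 cm); paddy species flooded, 2-leaf stage. Vehicle non-phytotoxic, surfactant included.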

morningglory [11] = assay: Test A pre-/postemergence herbicide test; assay type: in vivo, Ipomoea spp.
How it was run: as §3

wheat = assay: Test B postemergence herbicide test; assay type: in vivo, Triticum aestivum; set-up: key to Wheat plant response rating: 0 = no effect, 100 = complete control; details: postemergence, visual rating, scale 0 (no effect) to 100 (complete control)
How it was run: as §5

large crabgrass [12] = assay: Test A pre-/postemergence herbicide test; assay type: in vivo, Digitaria sanguinalis
How it was run: as §3

corn = assay: Test B pre-/postemergence herbicide test; assay type: in vivo, Zea mays; details: for Corn plant response rating: postemergence, visual rating, scale 0 (no effect) to 100 (complete control)
How it was run: as §1

giant foxtail [13] = assay: Test A pre-/postemergence herbicide test; assay type: in vivo, Setaria faberi
How it was run: as §3

velvetleaf [14] = assay: Test B pre-/postemergence herbicide test; assay type: in vivo, Abutilon theophrasti; details: for Velvetleaf plant response rating: postemergence, visual rating, scale 0 (no effect) to 100 (complete control)
How it was run: as §1

[15] = 125 g ai/ha, 0 = no effect, 100 = complete control, preemergence
[16] = 500 g ai/ha, visual rating 0-100, 0 no effect, 100 complete control, preemergence
[17] = Postemergence, 500 g ai/ha, 0 to 100 scale, 0 no effect, 100 complete control
[18] = Postemergence, 2000 g ai/ha, 0 to 100 scale, 0 no effect, 100 complete control
[19] = Preemergence, 2000 g ai/ha, visual rating, 0 to 100 scale (0 no effect, 100 complete control)
[20] = preemergence, 500 g ai/ha, visual injury, 0 to 100 scale (0 no effect, 100 complete control)

## CCc1nc(C(C)(C)C)sc1C(=O)Nc1cccc(C(=O)NCC(C)C)c1 [Compound 211]
Giant foxtail [1]; [15]
  Foxtail, Giant plant response rating (0 to 100 scale): 10
Giant foxtail [1]; [16]
  Plant response rating, Foxtail, Giant: 50
Giant foxtail [1]; 125 g ai/ha
  Foxtail, Giant plant response rating: 10
Giant foxtail [1]; 500 g ai/ha
  Foxtail, Giant plant response rating: 10
Surinam grass; [15]
  Surinam Grass plant response rating (0 to 100 scale): 0
Surinam grass; [16]
  Plant response rating, Surinam Grass: 30
Surinam grass; 125 g ai/ha
  Surinam Grass plant response rating: 10
Surinam grass; 500 g ai/ha
  Surinam Grass plant response rating: 10
Rice [2]
  Rice plant response rating: 20
Barnyardgrass [3]
  Barnyardgrass plant response rating: 20
Velvetleaf [4]; [17]
  Velvetleaf plant response rating: 15
Velvetleaf [4]; [18]
  Plant response rating, Velvetleaf: 25
Velvetleaf [4]; [19]
  Velvetleaf plant response rating: 65
Velvetleaf [4]; [20]
  Velvetleaf plant response rating: 25
Redroot pigweed; [17]
  Pigweed plant response rating: 25
Redroot pigweed; [18]
  Plant response rating, Pigweed: 25
Redroot pigweed; [19]
  Pigweed plant response rating: 40
Redroot pigweed; [20]
  Pigweed plant response rating: 30
Barnyardgrass [5]; [15]
  Barnyardgrass plant response rating (0 to 100 scale): 10
Barnyardgrass [5]; [16]
  Plant response rating, Barnyardgrass: 50
Barnyardgrass [5]; 125 g ai/ha
  Barnyardgrass plant response rating: 10
Barnyardgrass [5]; 500 g ai/ha
  Barnyardgrass plant response rating: 10
Wild oat; 125 g ai/ha
  Oat, Wild plant response rating: 10
Wild oat; 500 g ai/ha
  Oat, Wild plant response rating: 10
blackgrass; 125 g ai/ha
  Blackgrass plant response rating: 10
blackgrass; 500 g ai/ha
  Blackgrass plant response rating: 10
pigweed; [15]
  Pigweed plant response rating (0 to 100 scale): 0
pigweed; [16]
  Plant response rating, Pigweed: 30
pigweed; 125 g ai/ha
  Pigweed plant response rating: 10
pigweed; 500 g ai/ha
  Pigweed plant response rating: 30
Large crabgrass [6]; [15]
  Crabgrass, Large plant response rating (0 to 100 scale): 10
Large crabgrass [6]; [16]
  Plant response rating, Crabgrass, Large: 70
Large crabgrass [6]; 125 g ai/ha
  Crabgrass, Large plant response rating: 10
Large crabgrass [6]; 500 g ai/ha
  Crabgrass, Large plant response rating: 10
[7]
  Sedge, Umbrella plant response rating: 30
Barnyardgrass [8]; [17]
  Barnyardgrass plant response rating: 25
Barnyardgrass [8]; [18]
  Plant response rating, Barnyardgrass: 55
Barnyardgrass [8]; [19]
  Barnyardgrass plant response rating: 70
Barnyardgrass [8]; [20]
  Barnyardgrass plant response rating: 55
ducksalad
  Ducksalad plant response rating: 80
Morningglory [9]; [15]
  Morningglory plant response rating (0 to 100 scale): 0
Morningglory [9]; [16]
  Plant response rating, Morningglory: 10
Morningglory [9]; 125 g ai/ha
  Morningglory plant response rating: 10
Morningglory [9]; 500 g ai/ha
  Morningglory plant response rating: 30
lambsquarters; [15]
  Lambsquarters plant response rating (0 to 100 scale): 10
lambsquarters; [16]
  Plant response rating, Lambsquarters: 80
lambsquarters; 125 g ai/ha
  Lambsquarters plant response rating: 60
lambsquarters; 500 g ai/ha
  Lambsquarters plant response rating: 70
cocklebur; [15]
  Cocklebur plant response rating (0 to 100 scale): 0
cocklebur; [16]
  Plant response rating, Cocklebur: 0
cocklebur; 125 g ai/ha
  Cocklebur plant response rating: 30
cocklebur; 500 g ai/ha
  Cocklebur plant response rating: 60
Rice [10]; 125 g ai/ha, 0 = no effect, 100 = complete control
  Rice plant response rating (0 to 100 scale): 0
Rice [10]; 500 g ai/ha, visual rating 0-100, 0 no effect, 100 complete control
  Plant response rating, Rice: 10
Morningglory [11]; [17]
  Morningglory plant response rating: 20
Morningglory [11]; [18]
  Plant response rating, Morningglory: 15
Morningglory [11]; [19]
  Morningglory plant response rating: 25
Morningglory [11]; [20]
  Morningglory plant response rating: 10
wheat; 125 g ai/ha
  Wheat plant response rating: 10
wheat; 500 g ai/ha
  Wheat plant response rating: 10
Large crabgrass [12]; [17]
  Crabgrass, Large plant response rating: 20
Large crabgrass [12]; [18]
  Plant response rating, Crabgrass, Large: 30
Large crabgrass [12]; [19]
  Crabgrass, Large plant response rating: 85
Large crabgrass [12]; [20]
  Crabgrass, Large plant response rating: 75
corn; [15]
  Corn plant response rating (0 to 100 scale): 0
corn; [16]
  Plant response rating, Corn: 10
corn; 125 g ai/ha
  Corn plant response rating: 10
corn; 500 g ai/ha
  Corn plant response rating: 10
Giant foxtail [13]; [17]
  Foxtail, Giant plant response rating: 20
Giant foxtail [13]; [18]
  Plant response rating, Foxtail, Giant: 30
Giant foxtail [13]; [19]
  Foxtail, Giant plant response rating: 70
Giant foxtail [13]; [20]
  Foxtail, Giant plant response rating: 45
Velvetleaf [14]; [15]
  Velvetleaf plant response rating (0 to 100 scale): 0
Velvetleaf [14]; [16]
  Plant response rating, Velvetleaf: 10
Velvetleaf [14]; 125 g ai/ha
  Velvetleaf plant response rating: 30
Velvetleaf [14]; 500 g ai/ha
  Velvetleaf plant response rating: 30
